# “Also recorded” adds a separate entry of the source.
# Tests used:
# [1] = biological target: T1, CYP2A6 (Homo sapiens, UniProt P11509); test: biochemical
# T1 sequence (P11509 1-494): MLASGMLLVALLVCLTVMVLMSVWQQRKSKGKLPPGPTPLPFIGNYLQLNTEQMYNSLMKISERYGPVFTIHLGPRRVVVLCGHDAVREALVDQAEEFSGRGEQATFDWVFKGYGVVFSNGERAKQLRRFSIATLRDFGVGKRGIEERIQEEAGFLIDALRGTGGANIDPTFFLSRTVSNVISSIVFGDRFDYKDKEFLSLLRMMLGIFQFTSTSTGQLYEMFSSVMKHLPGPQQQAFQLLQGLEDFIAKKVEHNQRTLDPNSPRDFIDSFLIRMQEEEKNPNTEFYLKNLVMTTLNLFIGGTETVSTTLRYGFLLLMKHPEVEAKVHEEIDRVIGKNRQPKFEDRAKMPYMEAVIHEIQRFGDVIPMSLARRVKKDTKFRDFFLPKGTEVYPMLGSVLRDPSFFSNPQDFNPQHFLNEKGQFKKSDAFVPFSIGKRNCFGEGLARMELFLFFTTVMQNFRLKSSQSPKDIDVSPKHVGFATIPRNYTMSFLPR
# From the text: (§1) A 96-well plate assay and fluorescence spectroscopy may be used to quantify the product, 7-hydroxycoumarin.
# Data was fit using GraphPad Prism.
# [2] = biological target: T2, CYP2A6 (Homo sapiens, UniProt P11509, K28S/Q25K/Q26K/R27T/W24A); test: biochemical
# T2 sequence (P11509 with tags, fused parts or gaps limits assumed): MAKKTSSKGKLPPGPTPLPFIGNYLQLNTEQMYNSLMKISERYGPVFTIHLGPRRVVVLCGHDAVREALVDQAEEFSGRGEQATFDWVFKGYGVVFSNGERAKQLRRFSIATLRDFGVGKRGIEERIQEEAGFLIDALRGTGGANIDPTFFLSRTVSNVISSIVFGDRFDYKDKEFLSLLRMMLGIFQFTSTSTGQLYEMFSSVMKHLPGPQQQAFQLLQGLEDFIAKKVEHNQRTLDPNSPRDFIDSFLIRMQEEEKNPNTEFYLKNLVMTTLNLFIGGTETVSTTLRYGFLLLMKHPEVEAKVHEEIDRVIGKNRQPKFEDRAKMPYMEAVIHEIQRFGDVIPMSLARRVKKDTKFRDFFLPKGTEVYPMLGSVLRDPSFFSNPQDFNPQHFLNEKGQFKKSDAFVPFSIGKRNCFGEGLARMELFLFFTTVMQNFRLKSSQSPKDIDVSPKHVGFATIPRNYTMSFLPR
# Method: (§2) Spectral binding studies were conducted using purified heterologously expressed CYP2A6 in Escherichia coli. […] Absorbance changes (A386-A418) may be plotted against added ligand concentrations in order to determine dissociation constants.
# (§3) In more detail, the CYP2A6 enzyme may be heterologously expressed in Escherichia coli and purified. The expression vector, pKK2A6dH may be used to express the enzyme. The vector contains a cDNA sequence that codes for human CYP2A6 with a deletion of the N-terminal transmembrane sequence, an alteration of several residues at the modified N-terminus to increase expression, and four histidine residues added at the C-terminus to aid in purification. […] Expression from the vector may be induced with the addition of IPTG to bacterial cultures. δ-Aminolevulinic acid is added during expression to supplement heme biosynthesis. The enzyme may be purified following previously reported protocols. Briefly, following cell disruption, the solubilized enzyme may be purified using Ni^2+-affinity chromatography and cation-exchange (CM sepharose) chromatography, which may lead to protein of high purity and P450 content.
# [3] = biological target: T1, CYP2A6; test: in vitro
# From the text: (§4) Since this type of inhibition also requires that the inhibitor is initially metabolized by the target enzyme, MBIs may be identified by evaluating the inhibition in the presence and absence of cofactors that are required for activity, such as NADPH for CYPs.
# [4] = biological target: T1, CYP2A6; test: Time-dependent inhibition screen, recombinant CYP2A6 system, coumarin hydroxylase readout; conditions: for kinact / kinact/kI: Table 5; for Fold difference (with respect to CA): kinact/kI relative to t-CA; for time-dependent inhibition of CYP2A6, result in words: with NADPH, 7-hydroxycoumarin formation
# From the text: as §4
# [5] = biological target: T1, CYP2A6; test: biochemical; remark: listed apart in the source
# From the text: as §4
# [6] = biological target: T3, CYP2A6-mediated nicotine metabolism (Homo sapiens, UniProt P11509); test: Model (Equation 2) predicting change in nicotine AUC from mechanism-based inhibition parameters; conditions: Table 5, predicted nicotine AUC
# T3 sequence (P11509 1-494): T1 sequence (P11509 1-494)
# [7] = biological target: T1, CYP2A6; test: IC50 for inhibition of CYP2A6, coumarin hydroxylase activity (7-hydroxycoumarin fluorescence); conditions: Table 1B, structural analogs of CA
# From the text: as §1
# Data was fit using GraphPad Prism.
# [8] = obtained from PubChem and ChemSpider; cited from earlier work
# [9] = biological target: T2, CYP2A6; test: Spectral ligand binding (KS) to purified CYP2A6 expressed in Escherichia coli; conditions: read-out: Ks
# Method: as §2, §3
# [10] = recombinant CYP2A6, probe coumarin
Compound,Kd [2] [µM],Fold difference (with respect to CA) [4],"time-dependent inhibition of CYP2A6, result in words [4]",Ki [5] [µM],IC50 [1] [µM],other results
N#CC=Cc1ccccc1 [cinnamonitrile],–,–,–,–,8.8,–
"O=CCCc1ccccc1 [hydro-CA, hydrocinnamaldehyde]",44.8,0.96,not to be time-dependent inhibitors,85,48.3,kinact ([3]; recombinant enzyme): 0.00193 s⁻¹; kinact/KI ([3]; recombinant enzyme): 22.7 M⁻¹ s⁻¹; kinact [4]: .116 min⁻¹; kinact/kI [4]: 0.001365; AUC fold increase [6]: 1.71-2.67
"COc1ccccc1C=CC=O [o-methoxycinnamaldehyde, 2-methoxycinnamaldehyde]",1.6,–,–,–,–,–
"CC(C=O)=Cc1ccccc1[N+](=O)[O-] [o-nitro-α-methyl-CA, 2-nitro-α-methylcinnamaldehyde]",–,8.7,more potent inhibitors than t-CA,19.6,–,"kinact [3, 10]: 0.00405 s⁻¹; kinact/KI [3, 10]: 207 M⁻¹ s⁻¹"
CCCCC/C(C=O)=C/c1ccccc1 [α-amyl-CA],–,–,not to be time-dependent inhibitors,–,–,IC50 [7]: 65 µM
"O=C/C(Br)=C/c1ccccc1 [α-bromo-CA, α-bromocinnamaldehyde]",8.2,0.32,less potency as compared to t-CA,36.3,2.8,"kinact [3, 10]: 0.000283 s⁻¹; kinact/KI [3, 10]: 7.83 M⁻¹ s⁻¹; Log P [8]: 2.7; kinact [4]: .017 min⁻¹; kinact/kI [4]: 0.000463; AUC fold increase [6]: 1.35-1.84"
"O=CC(Cl)=Cc1ccccc1 [α-chloro-CA, α-chlorocinnamaldehyde]",9.6,30.7,substantially more potent time-dependent inhibitor of CYP2A6 than t-CA; also recorded: more potent inhibitors than t-CA,3.4,3.3,"kinact [3, 10]: 0.0025 s⁻¹; kinact/KI [3, 10]: 733 M⁻¹ s⁻¹; kinact [4]: .15 min⁻¹; kinact/kI [4]: 0.04399; Fold difference (with respect to CA) ([4]; listed as α-chloro-cinnamaldehyde): over 30; AUC fold increase [6]: 2.44-4.22"
CCCCCC/C(C=O)=C\c1ccccc1 [α-hexyl-CA],–,–,not to be time-dependent inhibitors,–,–,IC50 [7]: 64.7 µM
O=CC=C(c1ccccc1)c1ccccc1 [β-phenyl CA],–,–,–,–,–,IC50 [7]: 148 µM

# Further lines, with some results ahead:
Kd [2] [µM],Fold difference (with respect to CA) [4],"time-dependent inhibition of CYP2A6, result in words [4]",Ki [5] [µM],Compound,IC50 [1] [µM],other results
–,1.9,more potent inhibitors than t-CA,52.6,"O=CC=Cc1ccccc1C(F)(F)F [o-trifluoromethyl-CA, 2-trifluoromethylcinnamaldehyde]",–,"kinact [3, 10]: 0.00237 s⁻¹; kinact/KI [3, 10]: 45 M⁻¹ s⁻¹"
–,–,not to be time-dependent inhibitors,–,CCCCC(C=O)=Cc1ccccc1 [α-butyl-CA],–,Kd [9]: 36.8 µM
–,–,not to be time-dependent inhibitors,–,CCC(C=O)=Cc1ccccc1 [α-ethyl-CA],–,Kd [9]: 3 µM
–,–,not to be time-dependent inhibitors,–,O=CC(F)=Cc1ccccc1 [α-fluoro-CA],–,–
–,–,not to be time-dependent inhibitors,–,CC(C)C(C=O)=Cc1ccccc1 [α-isopropyl-CA],–,Kd [9]: 3.2 µM
6.8,–,not to be time-dependent inhibitors,–,"CC(C=O)=Cc1ccccc1 [α-methyl-CA, α-methyl-cinnamaldehyde]",5.3,"time-dependent inhibition of CYP2A6, result in words ([4]; listed as α-methyl-cinnamaldehyde): not be a time-dependent inhibitor of CYP2A6"
–,–,not to be time-dependent inhibitors,–,CCCC(C=O)=Cc1ccccc1 [α-propyl-CA],–,Kd [9]: 7.8 µM
